Our source for the inhibition values is patent US7138403B2, “2,4,5-trisubstituted thiazolyl derivatives and their antiinflammatory activity” (Janssen Pharmaceutica N.V., priority 2001, dated 2006).

In the first assay the test system is IL-12p70 production. Nature of the assay: In vitro inhibition of IL-12p70 production in human blood (LPS-stimulated whole blood, ELISA). The class given is cell-based. To be noted: test dose 1 × 10^−8 M, LPS 100 ng/ml, 24 hours, read-out: % inhib. IL-12 (p70). How it is done: In Vitro Inhibition of IL-12p70 Production in Human Blood Human Whole Blood Stimulation Peripheral blood from healthy donors was drawn into heparinized syringes (12.5 U heparin/ml). Blood samples were three-fold diluted in RMPI 1640 medium (Life Technologies, Belgium) supplemented with 2 mM L-glutamine, 100 U/ml penicillin and 100 μg/ml streptomycin, and 200 μl fractions were distributed in 96-well plates (Nunc, Roskilde, Denmark). Blood samples were preincubated (5 minutes at 37° C.) in a humidified 5% CO2-atmosphere with 25 μl of drug solvent (final concentration 0.1% dimethylsulfoxide in RPMI 1640) or with 25 μl of an appropriate dose of test compound before being stimulated by the addition of 25 μl of lipopolysaccharide at a final concentration of 100 ng/ml. After 24 hours, cell-free supernatant fluids were collected by centrifugation and stored at −20° C. until tested for the presence of IL-12. Cytokine Measurements Cytokine protein concentrations were determined by sandwich ELISA as described in Van Wauwe et al. (1996, Inflamm Res, 45,357–363). The quantikine HS kit (R &D HS120, Abingdon, United Kingdom) was used to quantify the cytokine levels (IL12 p70) in the supernatant
On to `Cc1nc(-c2ccc(C(F)(F)F)cc2)sc1-c1ncnc(N)n1` [Compound 81], for which the inhibition at 0.01 µM was 94%.
Take `Cc1nc(-c2ccc(C(F)(F)F)cc2)sc1-c1ccnc(N)n1` [Compound 9]: the inhibition at 0.01 µM stood at 92%.
As for `Cc1nc(-c2ccc(C(F)(F)F)cc2)sc1-c1ccnc(N(CCO)CCO)n1` [Compound 70], the inhibition at 0.01 µM came out at 90%.
As for `Cc1nc(-c2ccc(C(F)(F)F)cc2)sc1-c1ccnc(NCCC(=O)O)n1` [Compound 84], the inhibition at 0.01 µM amounted to 95%.
For the compound `Cc1nccc(-c2sc(-c3ccc(C(F)(F)F)cc3)nc2C)n1` [Compound 35], the inhibition at 0.01 µM was found to be 94%.

The test system of the next assay is IL-12p40 production. Nature of the assay: In vitro inhibition of IL-12p40 production in human blood (LPS-stimulated whole blood, ELISA). The conditions noted are these: test dose 1 × 10^−6 M, LPS 100 ng/ml, 24 hours, read-out: % inhib. IL-12 (p40). The class given is cell-based. The method, then:
In Vitro Inhibition of IL-12p40 Production in Human Blood
Human Whole Blood Stimulation
Peripheral blood from healthy male donors was drawn into heparinized syringes (12.5 U heparin/ml). Blood samples were three-fold diluted in RMPI 1640 medium (Life Technologies, Belgium) supplemented with 2 mM L-glutamine, 100 U/ml penicillin and 100 μg/ml streptomycin, and 300 μl fractions were distributed in 24-well multidisc plates (Nunc, Roskilde, Denmark). Blood samples were preincubated (60 minutes at 37° C.) in a humidified 6% CO2-atmosphere with 100 µl of drug solvent (final concentration 0.02% dimethylsulfoxide in RPMI 1640) or with 100 μl of an appropriate dose of test compound before being stimulated by the addition of 100 μl of lipopolysaccharide at a final concentration of 100 ng/ml. After 24 hours, cell-free supernatant fluids were collected by centrifugation and stored at −20° C. until tested for the presence of IL-12 p40.
Cytokine protein concentrations were determined by sandwich ELISA as described in Van Wauwe et al. (1996, Inflamm Res, 45, 357–363). Murine monoclonals used as capture antibodies to human cytokines were obtained from R&D Systems (Abingdon, United Kingdom) and code named MAB210 and MAB611 for TNF-α and IL-12 p40 respectively. Biotinylated goat polyclonal antibodies used to detect human cytokines were from R&D Systems (BAF210, BAF219). Cytokine levels were calculated from standard curves using recombinant cytokines supplied by R&D Systems.
In the case of `Cc1nc(-c2ccc(C(F)(F)F)cc2)sc1-c1ccnc(C#N)n1` [Compound 40], the inhibition at 1 µM stood at 93%.
Take `Cc1nc(-c2ccc(C(F)(F)F)cc2)sc1-c1ccnc(N)n1` [Compound 9]: the inhibition at 1 µM amounted to 57%.
As for `Cc1nc(-c2ccc(C(F)(F)F)cc2)sc1-c1nc(N)ncc1F` [Compound 49], the inhibition at 1 µM worked out at 92%.
In the case of `Cc1nc(-c2ccc(C(F)(F)F)cc2)sc1-c1ccnc(NCCCN)n1` [Compound 38], the inhibition at 1 µM was 93%.
With `Cc1nc(-c2ccc(C(F)(F)F)cc2)sc1-c1ccnc(NCC(=O)O)n1` [Compound 90], the inhibition at 1 µM stood at 56%.
On to `Cc1nc(-c2ccc(C(F)(F)F)cc2)sc1-c1cc(O)nc(N)n1` [Compound 80], for which the inhibition at 1 µM came to 49%.
As for `COc1nccc(-c2sc(-c3ccc(C(F)(F)F)cc3)nc2C)n1` [Compound 83], the inhibition at 1 µM was determined as 59%.
